# From ChEMBL document CHEMBL5528056, “BAY-9835: Discovery of the First Orally Bioavailable ADAMTS7 Inhibitor” (J Med Chem, 2024)
# Columns and labels:
# [1] = Selectivity ratio of IC50 for ADAMTS5 (unknown origin) to IC50 for ADAMTS7 (unknown origin)
# [2] = Volume of distribution at steady state in Beagle dog at 0.3 mg/kg, iv measured for >24 hrs by HPLC-MS/MS analysis; type: ADME, organism-based, Canis lupus familiaris; conditions: in vivo
# [3] = Solubility of compound in FaSSIF measured after 24 hrs by HPLC analysis; type: ADME; conditions: simulated gi fluid
# [4] = Dose normalized AUC in Beagle dog at 0.3 mg/kg, iv measured for >24 hrs by HPLC-MS/MS analysis; type: ADME, organism-based, Canis lupus familiaris; conditions: in vivo
# [5] = Fraction unbound in mouse plasma; type: ADME, cell-free
# [6] = Clearance in Beagle dog at 0.3 mg/kg, iv measured for >24 hrs by HPLC-MS/MS analysis; type: ADME, organism-based, Canis lupus familiaris; conditions: in vivo
# [7] = biological target: A disintegrin and metalloproteinase with thrombospondin motifs 7 (Mus musculus, UniProt Q68SA9); assay: Inhibition of recombinant mouse ADAMTS7 using HiLyteFluor-488 DELSSMVLELRGLRT-K(QXL520)-E-NH2 as substrate incubated for 120 mins by FRET assay
# [8] = Fraction unbound in dog plasma; type: ADME, cell-free, Canis lupus familiaris
# [9] = Fraction unbound in rat plasma; type: ADME, cell-free
# [10] = Half life in Wistar rat at 0.3 mg/kg, iv measured for >24 hrs by HPLC-MS/MS analysis; type: ADME, organism-based; conditions: in vivo
# [11] = Lipophilicity, logD of compound at pH 7.5; type: physicochemical; conditions: buffer
# [12] = Dose normalized AUC in C57bl6 mouse at 1 mg/kg, po measured for >24 hrs by HPLC-MS/MS analysis; type: ADME, organism-based; conditions: in vivo
# [13] = Selectivity ratio of IC50 for C-terminal 10His-tagged recombinant human MMP-14 (21 to 284 residues) expressed in Escherichia coli using McaKPLGL-Dpa-AR-NH2 as substrate to IC50 for ADAMTS7 (unknown origin)
# [14] = Oral bioavailability in Wistar rat at 1 mg/kg measured for >24 hrs by HPLC-MS/MS analysis; type: ADME, organism-based; conditions: in vivo
# [15] = Selectivity ratio of IC50 for ADAMTS12 (unknown origin) to IC50 for ADAMTS7 (unknown origin)
# [16] = Genotoxicity in Salmonella typhimurium by Ames […] test; type: toxicity; conditions: salmonella enterica subsp. enterica serovar typhimurium
# Cytochrome P450 3A4 [17] = biological target: T1, Cytochrome P450 3A4 (Homo sapiens, UniProt P08684); assay: Induction of CYP3A4 in human hepatocytes assessed as threshold concentration incubated for 48 hrs by qPCR analysis; type: ADME, cell-based, Hepatocyte
# [18] = Stability in human plasma measured for 4 hrs by HPLC analysis; type: ADME, cell-free
# [19] = biological target: Voltage-dependent L-type calcium channel subunit alpha-1C (Homo sapiens, UniProt Q13936); assay: Inhibition of hCaV1.2 upto 10 uM by voltage clamp method; type: toxicity
# Cytochrome P450 3A4 [20] = biological target: T1, Cytochrome P450 3A4; assay: Induction of CYP3A4 in human hepatocytes upto 61 uM incubated for 48 hrs by qPCR analysis; type: ADME, cell-based, Hepatocyte
# [21] = Oral bioavailability in Beagle dog at 1 mg/kg measured for >24 hrs by HPLC-MS/MS analysis; type: ADME, organism-based, Canis lupus familiaris; conditions: in vivo
# [22] = Half life in C57bl6 mouse at 1 mg/kg, po measured for >24 hrs by HPLC-MS/MS analysis; type: ADME, organism-based; conditions: in vivo
# [23] = Tmax in C57bl6 mouse at 1 mg/kg, po measured for >24 hrs by HPLC-MS/MS analysis; type: ADME, organism-based; conditions: in vivo
# [24] = Selectivity ratio of IC50 for MMP2 (unknown origin) to IC50 for ADAMTS7 (unknown origin)
# [25] = Half life in C57bl6 mouse at 0.3 mg/kg, iv measured for >24 hrs by HPLC-MS/MS analysis; type: ADME, organism-based; conditions: in vivo
# [26] = Selectivity ratio of IC50 for MMP12 (unknown origin) to IC50 for ADAMTS7 (unknown origin)
# [27] = Half life in Beagle dog at 0.3 mg/kg, iv measured for >24 hrs by HPLC-MS/MS analysis; type: ADME, organism-based, Canis lupus familiaris; conditions: in vivo
# T1 sequence (P08684 whole entry): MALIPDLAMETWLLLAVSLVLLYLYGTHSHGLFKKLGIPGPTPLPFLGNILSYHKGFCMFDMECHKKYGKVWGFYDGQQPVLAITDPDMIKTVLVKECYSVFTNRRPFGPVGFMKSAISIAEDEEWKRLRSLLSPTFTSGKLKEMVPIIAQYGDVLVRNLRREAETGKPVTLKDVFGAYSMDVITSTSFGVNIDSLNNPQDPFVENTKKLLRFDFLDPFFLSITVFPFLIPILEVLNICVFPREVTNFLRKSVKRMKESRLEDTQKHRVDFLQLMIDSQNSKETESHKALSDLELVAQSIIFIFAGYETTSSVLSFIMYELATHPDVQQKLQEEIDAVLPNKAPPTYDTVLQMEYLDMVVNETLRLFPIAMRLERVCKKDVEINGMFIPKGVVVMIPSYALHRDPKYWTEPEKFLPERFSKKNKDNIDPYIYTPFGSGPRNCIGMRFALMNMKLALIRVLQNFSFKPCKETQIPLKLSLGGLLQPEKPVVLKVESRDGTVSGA
# A disintegrin and metalloproteinase with thrombospondin motifs 7, sequence (Q68SA9 whole entry): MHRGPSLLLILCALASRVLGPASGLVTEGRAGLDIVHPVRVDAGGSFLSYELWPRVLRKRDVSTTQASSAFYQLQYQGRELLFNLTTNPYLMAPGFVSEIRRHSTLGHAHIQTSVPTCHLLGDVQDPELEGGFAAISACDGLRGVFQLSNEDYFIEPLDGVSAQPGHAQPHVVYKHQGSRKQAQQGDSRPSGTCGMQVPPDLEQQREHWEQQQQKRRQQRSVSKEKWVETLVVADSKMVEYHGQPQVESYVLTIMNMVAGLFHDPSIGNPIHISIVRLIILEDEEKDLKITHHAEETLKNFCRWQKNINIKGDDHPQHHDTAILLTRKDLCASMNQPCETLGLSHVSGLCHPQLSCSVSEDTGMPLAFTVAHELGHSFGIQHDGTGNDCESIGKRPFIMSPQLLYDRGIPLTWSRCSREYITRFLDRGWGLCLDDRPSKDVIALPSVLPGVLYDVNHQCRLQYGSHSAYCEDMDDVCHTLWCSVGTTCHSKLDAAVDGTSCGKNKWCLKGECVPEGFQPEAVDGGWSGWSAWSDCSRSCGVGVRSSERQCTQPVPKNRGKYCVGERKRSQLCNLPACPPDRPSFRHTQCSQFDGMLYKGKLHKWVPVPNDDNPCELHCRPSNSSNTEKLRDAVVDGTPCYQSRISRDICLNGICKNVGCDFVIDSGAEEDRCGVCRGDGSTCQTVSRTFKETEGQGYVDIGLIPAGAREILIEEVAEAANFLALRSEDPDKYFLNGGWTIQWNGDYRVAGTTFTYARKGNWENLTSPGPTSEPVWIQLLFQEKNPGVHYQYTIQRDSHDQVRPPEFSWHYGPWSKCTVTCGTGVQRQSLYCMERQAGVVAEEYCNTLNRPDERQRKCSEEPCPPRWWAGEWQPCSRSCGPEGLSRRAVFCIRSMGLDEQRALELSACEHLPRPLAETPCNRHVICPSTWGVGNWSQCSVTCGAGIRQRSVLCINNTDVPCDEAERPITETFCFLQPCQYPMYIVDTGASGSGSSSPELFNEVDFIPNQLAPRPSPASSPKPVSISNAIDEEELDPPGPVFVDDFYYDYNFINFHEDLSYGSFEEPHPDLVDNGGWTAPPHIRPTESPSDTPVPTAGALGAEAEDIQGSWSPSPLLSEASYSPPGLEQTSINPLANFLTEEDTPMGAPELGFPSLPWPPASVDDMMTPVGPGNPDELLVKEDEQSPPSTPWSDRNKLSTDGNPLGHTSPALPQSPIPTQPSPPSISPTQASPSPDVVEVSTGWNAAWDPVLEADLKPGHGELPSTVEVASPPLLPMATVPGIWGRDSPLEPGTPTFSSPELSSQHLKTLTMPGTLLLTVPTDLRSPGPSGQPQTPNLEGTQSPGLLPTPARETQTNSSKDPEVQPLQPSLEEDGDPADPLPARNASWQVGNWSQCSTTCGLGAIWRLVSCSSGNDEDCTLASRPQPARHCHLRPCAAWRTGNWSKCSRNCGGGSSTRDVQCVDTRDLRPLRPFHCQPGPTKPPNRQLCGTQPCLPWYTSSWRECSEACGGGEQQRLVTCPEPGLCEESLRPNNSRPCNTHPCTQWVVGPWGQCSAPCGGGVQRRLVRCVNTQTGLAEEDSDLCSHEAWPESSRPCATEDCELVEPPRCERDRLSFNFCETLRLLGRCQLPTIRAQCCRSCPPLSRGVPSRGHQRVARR
# Voltage-dependent L-type calcium channel subunit alpha-1C, sequence (Q13936 whole entry): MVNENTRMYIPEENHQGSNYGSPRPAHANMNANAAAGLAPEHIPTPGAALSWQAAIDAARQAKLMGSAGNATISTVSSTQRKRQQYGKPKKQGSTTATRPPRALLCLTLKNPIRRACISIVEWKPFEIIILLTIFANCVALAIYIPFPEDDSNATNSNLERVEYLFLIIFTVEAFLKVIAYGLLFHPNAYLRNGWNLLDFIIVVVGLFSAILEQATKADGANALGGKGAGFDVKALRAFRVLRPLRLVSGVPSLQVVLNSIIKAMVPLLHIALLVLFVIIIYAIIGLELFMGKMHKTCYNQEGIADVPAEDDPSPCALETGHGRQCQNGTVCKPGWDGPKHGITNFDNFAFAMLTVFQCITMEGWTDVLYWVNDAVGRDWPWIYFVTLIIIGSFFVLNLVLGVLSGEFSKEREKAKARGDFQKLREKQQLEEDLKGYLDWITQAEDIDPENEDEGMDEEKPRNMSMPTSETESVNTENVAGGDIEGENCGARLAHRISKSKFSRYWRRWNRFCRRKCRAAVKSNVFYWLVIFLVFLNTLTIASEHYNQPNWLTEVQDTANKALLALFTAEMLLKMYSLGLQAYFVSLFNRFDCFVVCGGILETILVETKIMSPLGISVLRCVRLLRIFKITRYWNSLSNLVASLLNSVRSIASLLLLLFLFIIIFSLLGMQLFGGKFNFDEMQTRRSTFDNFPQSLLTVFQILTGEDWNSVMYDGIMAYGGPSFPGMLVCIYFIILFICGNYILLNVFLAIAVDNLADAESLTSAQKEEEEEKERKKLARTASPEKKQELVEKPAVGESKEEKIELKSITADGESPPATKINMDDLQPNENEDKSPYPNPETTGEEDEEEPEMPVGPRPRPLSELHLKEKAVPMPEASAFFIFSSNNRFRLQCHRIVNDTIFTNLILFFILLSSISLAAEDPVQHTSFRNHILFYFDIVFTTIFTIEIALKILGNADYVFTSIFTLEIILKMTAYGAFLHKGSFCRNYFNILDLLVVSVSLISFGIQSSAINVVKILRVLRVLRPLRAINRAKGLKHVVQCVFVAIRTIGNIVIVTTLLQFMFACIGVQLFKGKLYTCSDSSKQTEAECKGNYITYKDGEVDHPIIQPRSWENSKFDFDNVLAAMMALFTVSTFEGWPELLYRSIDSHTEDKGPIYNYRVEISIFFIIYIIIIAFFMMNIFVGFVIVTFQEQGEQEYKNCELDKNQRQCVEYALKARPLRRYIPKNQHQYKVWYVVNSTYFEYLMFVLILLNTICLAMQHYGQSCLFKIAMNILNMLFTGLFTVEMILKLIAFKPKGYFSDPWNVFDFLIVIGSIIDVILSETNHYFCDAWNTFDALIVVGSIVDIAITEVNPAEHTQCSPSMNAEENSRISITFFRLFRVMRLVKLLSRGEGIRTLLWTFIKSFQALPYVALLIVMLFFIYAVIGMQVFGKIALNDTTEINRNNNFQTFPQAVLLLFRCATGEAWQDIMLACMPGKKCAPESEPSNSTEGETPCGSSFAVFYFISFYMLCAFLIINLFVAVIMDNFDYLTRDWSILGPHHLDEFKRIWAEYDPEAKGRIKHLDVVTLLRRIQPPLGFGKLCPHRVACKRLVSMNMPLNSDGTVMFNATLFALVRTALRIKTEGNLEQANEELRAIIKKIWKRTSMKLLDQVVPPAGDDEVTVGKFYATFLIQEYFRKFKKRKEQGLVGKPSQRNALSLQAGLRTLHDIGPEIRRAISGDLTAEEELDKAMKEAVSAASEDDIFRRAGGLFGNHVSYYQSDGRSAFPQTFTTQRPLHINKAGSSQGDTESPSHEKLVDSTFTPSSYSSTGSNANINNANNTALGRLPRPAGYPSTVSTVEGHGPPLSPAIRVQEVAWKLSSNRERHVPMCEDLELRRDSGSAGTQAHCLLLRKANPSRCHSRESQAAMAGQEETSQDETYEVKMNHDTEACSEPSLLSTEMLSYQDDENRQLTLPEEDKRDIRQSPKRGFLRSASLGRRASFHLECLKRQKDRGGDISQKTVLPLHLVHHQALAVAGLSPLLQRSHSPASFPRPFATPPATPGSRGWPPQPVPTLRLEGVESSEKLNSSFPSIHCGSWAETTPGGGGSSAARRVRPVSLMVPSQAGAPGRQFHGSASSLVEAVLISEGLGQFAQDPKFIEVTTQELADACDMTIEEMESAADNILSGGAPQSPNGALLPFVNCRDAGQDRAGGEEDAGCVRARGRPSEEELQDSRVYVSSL
smiles,measurement,setting,value
Cn1nccc1[C@]1(CNC(=O)c2ccc(F)c(F)c2-c2ccc(C(F)(F)F)cc2)NC(=O)NC1=O,Ratio IC50,[1],1650
same,Vdss,[2],0.4 L/kg
same,solubility,[3],297 µg/mL
same,AUC/dose,[4],88 kg·h/L
same,Fu,[5],11%
same,CL,[6],0.33 mL/min/kg
same,IC50,[7],8 nM
same,Fu,[8],5%
same,Fu,[9],5%
same,t1/2,[10],3.6 h
same,logD,[11],3.2
same,AUC/dose,[12],2 kg·h/L
same,Ratio IC50,[13],> 16700
same,F,[14],96%
same,Ratio IC50,[15],5
same,Activity,[16],Non-Toxic
same,Activity,Cytochrome P450 3A4 [17],18 µM
same,Stability,[18],Stable
same,inhibition (INH),[19],Not Active
same,Activity,Cytochrome P450 3A4 [20],Not Active
same,F,[21],77%
same,t1/2,[22],2.5 h
same,Tmax,[23],1 h
same,Ratio IC50,[24],17300
same,t1/2,[25],2.1 h
same,Ratio IC50,[26],896
same,t1/2,[27],22 h
